For experiment [1], the target named is T1, human TYK2 (JH2domain-pseudokinase) (Homo sapiens, UniProt P29597).
T1 construct: host or cells: transiently transfected HEK293 cells; unpurified extract used
Kind of experiment: TYK2 JH2 domain binding assay (KINOMEscan). Conditions: 11-point 3-fold dilution, top concentration 30,000 nM, duplicate. How it is done: Binding constants for the compounds described herein against the JH2 domain were determined by the following protocol for a KINOMEscan® assay (DiscoveRx). A fusion protein of a partial length construct of human TYK2 (JH2domain-pseudokinase) (amino acids G556 to D888 based on reference sequence NP_003322.3) and the DNA binding domain of NFkB is expressed in transiently transfected HEK293 cells. From these HEK 293 cells, extracts are prepared in M-PER extraction buffer (Pierce) in the presence of Protease Inhibitor Cocktail Complete (Roche) and Phosphatase Inhibitor Cocktail Set II (Merck) per manufacturers' instructions. The TYK2 (JH2domain-pseudokinase) fusion protein is labeled with a chimeric double-stranded DNA tag containing the NFkB binding site fused to an amplicon for qPCR readout, which is added directly to the expression extract (the final concentration of DNA-tag in the binding reaction is 0.1 nM). […]
The binding reaction is assembled by combining 16 μl of DNA-tagged kinase extract, 3.8 μl liganded affinity beads, and 0.18 μl test compound (PBS/0.05% Tween 20/10 mM DTT/0.1% BSA/2 μg/ml sonicated salmon sperm DNA)]. […] Kds were determined using an 11-point 3-fold compound dilution series with three DMSO control points. […]
Test compounds are prepared as 111× stocks in 100% DMSO. Kds were determined using an 11-point 3-fold compound dilution series with three DMSO control points. […]

The subject of another experiment is pSTAT5 in Human PBMC. As to the kind of experiment: INFα induced pSTAT5 in human PBMC. In kind it is cell-based. Conditions: fresh human PBMC, compound 1 hour, INFα 5000 units/ml for 15 minutes, MSD Phospho STAT5 kit; read-out: p-STAT5 IC50. On the procedure: Fresh Human PBMCs were resuspended in RPMI 1640 medium with 10% FBS. Cells were seeded in a round bottom 96-well plate at the concentration of 200,000 cells/well. A 10-point dilution series of test compound (top dose 10 uM, 1:5 dilution) was added to the well using the liquid dispenser (Tecan D300e) and incubated for 1 hour at 37 C. Then human INFα recombinant protein (R&D Systems) was added to the well at the final concentration of 5000 units/ml and incubated for 15 minutes at 37 C. Cell lysates were prepared and analyzed by Phospho STAT5 (Tyr693) Kit (Meso Scale Discovery) following manufacturer's protocol.
For calculation of the inhibition rate, the relative pSTAT5 signal of each well=pSTAT5 signal of each well−the average pSTAT5 signal of baseline.
The inhibition %=(the average pSTAT5 signal of INFα treatment wells−the relative of pSTAT5 signal in each compound containing well)/the average pSTAT5 signal of INFα treatment wells*100%
The curve was plotted as the inhibition % (y-axis) vs. compounds concentration (x-axis) and was fitted with log(inhibitor) vs. normalized response—Variable slope by GraphPad Prism7.0.

Here are results for one molecule from patent US12679850B2, “TYK2 inhibitors and uses thereof” (Alumis Inc., priority 2020, dated 2026).

T1 sequence (P29597 556-888): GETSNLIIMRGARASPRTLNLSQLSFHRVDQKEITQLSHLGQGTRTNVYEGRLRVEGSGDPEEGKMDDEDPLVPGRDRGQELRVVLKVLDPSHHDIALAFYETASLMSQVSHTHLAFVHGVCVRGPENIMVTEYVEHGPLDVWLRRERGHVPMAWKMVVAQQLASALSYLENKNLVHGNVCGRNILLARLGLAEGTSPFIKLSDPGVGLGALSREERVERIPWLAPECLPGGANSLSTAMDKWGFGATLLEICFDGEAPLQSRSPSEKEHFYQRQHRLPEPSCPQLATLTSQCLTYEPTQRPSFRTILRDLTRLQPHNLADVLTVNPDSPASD

Take `[2H]C([2H])([2H])n1nnc2c3cc(cc21)CO[C@@H]1CCC[C@H]1NC(=O)c1cnc2c(NC)cc(nn12)N3` [Example 1]: the affinity in experiment [1], expressed as Kd, was 0.0022 nM. In the experiment on pSTAT5 in Human PBMC, the IC50 – broadly, the midpoint of a concentration-inhibition curve – turned out to be 1.7 nM.
